Test results from patent publication US20230041065A1, “METHODS FOR GENERATING HEMATOPOIETIC STEM CELLS” (The Brigham and Women`s Hospital, Inc., priority 2019, published 2023).

Assays:
E11.5 AGM cells = experiment: Hematopoietic CFU and FACS assays on E11.5 AGM cells; type: cell-based, mouse
Protocol: Pulsating blood vessels like conditions were stimulated in vitro using Flexcell FX-4000 machine. To analyze roles of pharmacological targets in regulating the endothelial-to-HSC transition, mouse embryo-derived AGM or whole mouse embryo were exposed ex vivo with biomechanical stretching, chemicals, or drugs. Next, hematopoietic colony formation assays were performed by incubating mouse AGM-derived cells in StemCell M3434 media for seven days. Serial transplantation of AGM-derived HSCs in lethally irradiated SJL mice were performed. The stem cell frequency upon biomechanical stretching was analyzed using a limiting dilution assay. To characterize properties of AGM-HSC-derived blood cells in primary transplants, percentage chimerism and reconstitution was measured using FACS, globin transcripts were analyzed using quantitative reverse transcriptase-PCR, myeloperoxidase amount was measured using PicoKine ELISA kit, TCR-β rearrangement was analyzed using PCR for TCR-β locus, pre-immune IG detection was analyzed using Thermo-Fisher Mouse Ig Isotyping kit, and delayed-type hypersensitivity was analyzed by injecting sheep RBC (Rockland Immunochemicals) in the footpad of pre-sensitized mice. E11.5 AGM were harvested from C57BL6/J Cd45.2 mouse embryos, and a single cell suspension of a three-embryo equivalent of cells was seeded on each well of a BioFlex six-well culture plate ([…]). We cultured cells overnight with the application of cyclic strain (Flexcell® FX4000TM Tension System) and/or treatment with chemical modulators (2-100 μM Yoda1, 1 μM Nanaomycin, 100 μM Gdcl3, 1 uM GsMT×4, 5-20 μM 4αPDD, 10 uM GSK205). Next, harvested cells were used to perform transplant, fluorescence-activated cell sorting (FACS) analysis, and colony-forming unit (CFU) assays. For CFU assays, cells from AGM explant or ex vivo were plated in MethoCult GF M3434 media (StemCell Technologies). Seven days after seeding, we analyzed their capacity to make granulocyte, erythroid, macrophage, megakaryocyte (GEMM), granulocyte macrophage (GM), granulocyte (G), macrophage (M), and erythroid (E) colonies.

E11.5 AGM-derived HSCs = experiment: Serial transplantation of E11.5 AGM-derived HSCs into irradiated mice; type: in vivo, mouse
Protocol: Pulsating blood vessels like conditions were stimulated in vitro using Flexcell FX-4000 machine. To analyze roles of pharmacological targets in regulating the endothelial-to-HSC transition, mouse embryo-derived AGM or whole mouse embryo were exposed ex vivo with biomechanical stretching, chemicals, or drugs. Next, hematopoietic colony formation assays were performed by incubating mouse AGM-derived cells in StemCell M3434 media for seven days. Serial transplantation of AGM-derived HSCs in lethally irradiated SJL mice were performed. The stem cell frequency upon biomechanical stretching was analyzed using a limiting dilution assay. To characterize properties of AGM-HSC-derived blood cells in primary transplants, percentage chimerism and reconstitution was measured using FACS, globin transcripts were analyzed using quantitative reverse transcriptase-PCR, myeloperoxidase amount was measured using PicoKine ELISA kit, TCR-β rearrangement was analyzed using PCR for TCR-β locus, pre-immune IG detection was analyzed using Thermo-Fisher Mouse Ig Isotyping kit, and delayed-type hypersensitivity was analyzed by injecting sheep RBC (Rockland Immunochemicals) in the footpad of pre-sensitized mice.
For primary transplantation, three-embryo equivalents of untreated or treated (cyclic strain or 25 μM Yoda1) AGMs plus splenic helper cells (˜500,000 per mouse) were injected into lethally irradiated (split dose […]) Cd45.1 (SJL) mice by retro-orbital injection. For secondary and tertiary transplants, the bone marrow was isolated (legs, arm, pelvic bone, spine, sternum) from the transplanted mice. The bone marrow was loaded on a Ficoll gradient (Histopaque®-1083, Sigma-Aldrich), and the cells from the buffy coat incubated with biotin-conjugated lineage antibodies and streptavidin microbeads (Miltenyi Biotec). Next, the lineage negative (Lin^−) cells were separated with MACS LS Columns (Miltenyi Biotec), and the donor Cd45.2 Lin^−Sca1+c-Kit^+ (LSK) cells sorted with a MoFlo Beckman Coulter sorter. Subsequently, the sorted Cd45.2 LSK cells were mixed with Cd45.1 splenic helper cells (˜500,000 per mouse) and transplanted into Cd45.1 irradiated (split dose […]) SJL mice by retro-orbital injection.
AGM cells from explants and ex vivo were stained with Sca1-Pacific-Blue (E13-161.7, Biolegend) and Flk1-APC-Cy7 (Avas 12α1, BD). Blood from transplanted mice was stained with the following antibody cocktail: Cd45.2-Pacific-Blue (104, Biolegend), Cd45.1-FITC (A20, Biolegend), Cd3-PE (145-2C11, Biolegend), Cd8-PE (53-6.7, Biolegend), Mac1-APC (M1/70, Biolegend), Gr1-APC (108412, Biolegend), Cd19-APC-CY7(6D5, Biolegend), B220-APC-CY7 (RA3-6B2, Biolegend). […]

Clc1cccc(Cl)c1CSc1nnc(-c2cnccn2)s1 [Yoda1, 2-[5-[[(2,6-Dichlorophenyl)methyl]thio]-1,3,4-thiadiazol-2-yl]-pyrazine]
GEMM formation (E11.5 AGM cells; 25 μM): enhances GEMM formation | hematopoietic colony formation (endothelial-to-hematopoietic transition) (E11.5 AGM cells; E11.5 AGM cells vs. control): stimulates the endothelial-to-hematopoietic transition | percentage reconstitution to myeloid cells, T-cells and B-cells (E11.5 AGM-derived HSCs; primary transplant, week 16): stimulates the formation of HSCs that reconstitute to the blood | percentage peripheral blood chimerism (E11.5 AGM-derived HSCs; primary transplant, weeks 8-16, treated E11.5 AGM donor cells): stimulates the formation of HSCs | percentage reconstitution to myeloid cells, T-cells and B-cells (E11.5 AGM-derived HSCs; secondary transplant, week 12): produces HSCs that can serially reconstitute to the blood | percentage peripheral blood chimerism (E11.5 AGM-derived HSCs; secondary transplant, weeks 8-12): produces HSCs that have serial engraftment and self-renewal capacities
